Laboratory results reported in patent publication US5885834A, “Antisense oligodeoxynucleotide against phosphodiesterase” (priority 1997, dated 1999).
Entries after “also recorded” stand apart in the source; their conditions may differ.

Key:
[1] = tested on: PDE1 activity in RPMI 8392 cells; experiment: CaM-stimulated PDE (PDE1) activity in cells after ODN treatment; type: cell-based, human; settings: for PDE1 (CaM-stimulated PDE) activity: 3 days
Method: Cells were grown to a density of about 10^6 /ml, collected by centrifugation (1200×g, 10 min), resuspended in I ml of homogenization buffer containing 40 mM Tris/HCl (pH 7.5), 1 mM EDTA, 1 mM DTT, 35 μg/ml phenylmethylsulfonyl fluoride, 15 mM benzamidine, 1 μg/ml leupeptin, 1 μg/ml antipain, 1 μg/ml pepstatin, and 1 μg/ml aprotinin, homogenized with 20 strokes of a Dounce glass-on-glasshomogenizer and assayed for PDE activity, using 1 μM cAMP as substrate, as described previously. Data points represent the means of 2 to 10 separate determinations. […] Control activity was 1.66±0.14 pmol/min/10^6 cells (mean±S.E.M.; n=8) in the absence and 4.80±0.42 pmol/min/10^6 cells (mean±S.E.M.; n=10) in the presence of Ca^2+ and calmodulin.
RPMI 8392 cells were grown and treated with AS and NS ODN as described in the legend to FIG. 2. Cells were then collected at daily intervals and assayed for PDE activity as described in FIG. 10. Results represent the mean±the range of duplicate determinations. Control activities (pmol/min/10^6 cells) were 1.17, 1.34, and 1.50 in the absence, and 3.83, 4.34, and 3.79 in the presence of Ca^2+ and calmodulin at days 1, 2, and 3, respectively.

isolated, quiescent HPBL = experiment: TUNEL assay of apoptosis, flow cytometry, quiescent HPBL; type: cell-based, human; settings: isolated, quiescent HPBL in culture, ODN added
From the text: Nevertheless, the effects of AS ODNs on HPBL can still be tested by quantifying and comparing the percentage of cells undergoing apoptosis in the presence and absence of the AS ODN. Apoptosis detected by examining endonuclease-digested DNA, commonly referred to as the DNA laddering technique, has been employed and the results therefrom are set forth in FIG. 5. However, we prefer to use a TUNEL assay, an acronym for terminal deoxynucleotidyl transferase (TdT)-mediated dUTP nick end labeling, which more readily allows quantitation of the percentage of cells undergoing apoptosis. The principle of the TUNEL assay is that endonuclease digestion during apoptosis results in the formation of 3'-OH ends in the digested DNA. The digested DNA in the apoptotic cells can then be labeled with fluorescein by catalytically incorporating fluorescein-12-dUTP at the 3'-OH ends using the TdT enzyme. Fluorescence can then be quantitated by flow cytometry, using a fluorescence activated cell sorter (FACS), which would give a measure of the number of cells undergoing apoptosis. An example of the appearance of a population of fluorescein labeled apoptotic cells, as evidenced by flow cytometry, following TUNEL assay labeling of the cells, is shown in FIGS. 6A-C. Cells were then cultured for 3 days with 10 μg/ml PHA-P (Sigma), in the absence of any ODN (FIG. 6A), in the presence of 30 μM NS ODN (FIG. 6B), or in the presence of 30 μM AS ODN (FIG. 6C). Cells were then collected by centrifugation and fluorescein labeled by the TUNEL assay using the Promega Apoptosis Detection System. Flow cytometry was performed on a Beckton Dickinson FACScan by the FACS facility.
The procedure for analyzing apoptosis by the TUNEL method uses either an In Situ Cell Death Kit, Fluorescein from Boehringer Mannheim or an Apoptosis Detection System, Fluorescein from Promega and follows the protocols of the manufacturers. The data in FIGS. 6 and 7 was obtained using the manufacturer's protocol for the Apoptosis Detection System, Fluorescein from Promega. […]

Row | Substance | PDE1 activity ([1]; 30 μM ODN, 2 days) | PDE1 (CaM-stimulated PDE) activity ([1]; 10 or 30 μM ODN) | Rate of formation of apoptotic HPBL cells (TUNEL) (isolated, quiescent HPBL) | PDE1 activity ([1]; 10 or 30 μM ODN, time not specified)
1 | 5'-GGACAGCTCCATGCTCAG-3' (phosphorothioate, further chemistry not given here) [AS ODN, 18 nt phosphorothioate antisense oligodeoxynucleotide targeted against the translation initiation region of PDE1B1] | noticeably diminished | undetectable; also recorded: disappear completely | unchanged | –
2 | 5'-TACGTGAGGCACCTACGC-3' (phosphorothioate, further chemistry not given here) [NS ODN, control phosphorothioate nonsense ODN, same base composition as the AS ODN in random, scrambled order] | – | relatively unchanged | no different from control | little or no effect
